# Patent US7361645B2, “Androgenic 7-substituted 11-halogen steroids” (Bayer Schering Pharma AG, priority 2001, dated 2008)
# “And” between values parts separate entries of the source, which are not always exact repeats. Identical values can stand only once.
# Experiments:
# seminal vesicles = assay: Hershberger test, juvenile castrated male rat: seminal vesicles weight; format: in vivo; conditions: ORX juvenile rats, 7 days
# Source text: (§1) The test by Hershberger et al. (1953) is used as a screening test method for detecting androgenic properties:
# (§2) Principle. The function and size of the accessory reproductive glands (seminal vesicles, prostate) and of the muscle (e.g. M. levator ani) are androgen dependent. Castration leads to the atrophy of these organs, the substitution with androgenic compounds stimulates growth and function in a dose dependent manner.
# (§3) Test description. In the juvenile male castrated rat, pharmacologically active agonists of androgens stimulate the growth of the prostate, seminal vesicles (androgenic property) and Musculus levator ani (anabolic property). The treatment for seven days of juvenile castrated male rats with daily administration of compound A: 11β-Fluoro-17β-hydroxy-7α-methyl-estr-4-en-3-one,(different doses), compound B: 7α-methyl-19-nortestosterone (different doses), testosterone propionate (reference) and benzylbenzoate/ricinus oil (solvent and control), respectively, was used to determine the androgenic and anabolic potency of eF-MENT. Analyses: relative weights of prostate, seminal vesicles and M. levator ani.
# (§4) Animals: ORX, juvenile rats, duration of treatment: 7 days.
# [1] = test system: prostate, seminal vesicles and M. levator ani; assay: Anabolic and androgenic activity in the juvenile male rat (Hershberger), overall; format: in vivo; conditions: compared with prior art compound B
# Source text: as §1, §2, §3
# M. levator ani = assay: Hershberger test, juvenile castrated male rat: M. levator ani weight; format: in vivo; conditions: ORX juvenile rats, 7 days
# Source text: as §1, §2, §3, §4
# [2] = Stability in liver microsomes of various species, overall; format: in vitro ADME; conditions: compared with compounds of the prior art
# Description: (§5) The metabolic stability of the compounds has been tested in liver microsomes of various species (commercially available). It is possible to make predictions as to the first-pass-metabolism in human by using human test material. A rapid degradation of the test material gives hints at low oral bio-availability of the substance tested.
# (§6) The amount of the remaining compound is quantified by comparison with the amount remaining after 0 mins.
# prostate = assay: Hershberger test, juvenile castrated male rat: prostate weight; format: in vivo; conditions: ORX juvenile rats, 7 days
# Source text: as §1, §2, §3, §4
# [3] = Stability in liver microsomes, mouse; format: in vitro ADME; conditions: 3 μM
# Description: as §5, §6
# (§7) Species Specific Stability of Test Compounds in Liver at a Concentration of 3 μM
# [4] = Stability in liver microsomes, rat; format: in vitro ADME; conditions: 3 μM
# Description: as §5, §6, §7
# [5] = Stability in liver microsomes, human; format: in vitro ADME; conditions: 3 μM
# Description: as §5, §6, §7
structure (smiles),measurement,setting,value
"C[C@@H]1CC2=CC(=O)CC[C@@H]2[C@@H]2[C@@H]1[C@@H]1CC[C@H](O)[C@@]1(C)C[C@@H]2F [Compound A, 11β-Fluoro-17β-hydroxy-7α-methyl-estr-4-en-3-one]",Seminal vesicles Stimulation [mean],seminal vesicles; dose 0.015 mg*kg^-1*day^-1,18.6
same,Seminal vesicles rel. Gewicht,seminal vesicles; dose 0.015 mg*kg^-1*day^-1,18.6 mg/100 g and 15.5 mg/100 g
same,Seminal vesicles Stimulation [mean],seminal vesicles; dose 0.03 mg*kg^-1*day^-1,35.6
same,Seminal vesicles rel. Gewicht,seminal vesicles; dose 0.03 mg*kg^-1*day^-1,26.8 mg/100 g
same,Seminal vesicles Stimulation [mean],seminal vesicles; dose 0.05 mg*kg^-1*day^-1,59.2
same,Seminal vesicles rel. Gewicht,seminal vesicles; dose 0.05 mg*kg^-1*day^-1,43.6 mg/100 g
same,Seminal vesicles Stimulation [mean],seminal vesicles; dose 0.15 mg*kg^-1*day^-1,85.5
same,Seminal vesicles rel. Gewicht,seminal vesicles; dose 0.15 mg*kg^-1*day^-1,49.3 mg/100 g and 57.9 mg/100 g and 64.4 mg/100 g
same,Seminal vesicles Stimulation [mean],seminal vesicles; dose 0.3 mg*kg^-1*day^-1,144.8
same,Seminal vesicles rel. Gewicht,seminal vesicles; dose 0.3 mg*kg^-1*day^-1,93.4 mg/100 g
same,Seminal vesicles Stimulation [mean],seminal vesicles; dose 1.5 mg*kg^-1*day^-1,189.3
same,Seminal vesicles rel. Gewicht,seminal vesicles; dose 1.5 mg*kg^-1*day^-1,120.0 mg/100 g
same,activity profile (androgenic/anabolic),[1],comparable to the prior art compound B
same,M. levator ani Stimulation [mean],M. levator ani; dose 0.015 mg*kg^-1*day^-1,79.5
same,M. levator ani rel. Weight,M. levator ani; dose 0.015 mg*kg^-1*day^-1,54.9 mg/100 g and 50.8 mg/100 g
same,M. levator ani Stimulation [mean],M. levator ani; dose 0.03 mg*kg^-1*day^-1,93.3
same,M. levator ani rel. Weight,M. levator ani; dose 0.03 mg*kg^-1*day^-1,56.5 mg/100 g
same,M. levator ani Stimulation [mean],M. levator ani; dose 0.05 mg*kg^-1*day^-1,118.0
same,M. levator ani rel. Weight,M. levator ani; dose 0.05 mg*kg^-1*day^-1,59.4 mg/100 g
same,M. levator ani Stimulation [mean],M. levator ani; dose 0.15 mg*kg^-1*day^-1,154.5
same,M. levator ani Stimulation [mean],M. levator ani; dose 0.3 mg*kg^-1*day^-1,180.4
same,M. levator ani rel. Weight,M. levator ani; dose 0.3 mg*kg^-1*day^-1,69.8 mg/100 g
same,M. levator ani Stimulation [mean],M. levator ani; dose 1.5 mg*kg^-1*day^-1,181.0
same,M. levator ani rel. Weight,M. levator ani; dose 1.5 mg*kg^-1*day^-1,69.9 mg/100 g
same,metabolic stability,[2],higher than that of compounds of the prior art
same,Prostate Stimulation [mean],prostate; dose 0.015 mg*kg^-1*day^-1,30.0
same,Prostate rel. Weight,prostate; dose 0.015 mg*kg^-1*day^-1,19.7 mg/100 g and 18.5 mg/100 g
same,Prostate Stimulation [mean],prostate; dose 0.03 mg*kg^-1*day^-1,40.1
same,Prostate rel. Weight,prostate; dose 0.03 mg*kg^-1*day^-1,25.2 mg/100 g
same,Prostate Stimulation [mean],prostate; dose 0.05 mg*kg^-1*day^-1,76.6
same,Prostate rel. Weight,prostate; dose 0.05 mg*kg^-1*day^-1,34.1 mg/100 g
same,Prostate Stimulation [mean],prostate; dose 0.15 mg*kg^-1*day^-1,93.8
same,Prostate rel. Weight,prostate; dose 0.15 mg*kg^-1*day^-1,41.7 mg/100 g and 44.9 mg/100 g and 47.5 mg/100 g
same,Prostate Stimulation [mean],prostate; dose 0.3 mg*kg^-1*day^-1,125.1
same,Prostate rel. Weight,prostate; dose 0.3 mg*kg^-1*day^-1,59.5 mg/100 g
same,Prostate Stimulation [mean],prostate; dose 1.5 mg*kg^-1*day^-1,137.3
same,Prostate rel. Weight,prostate; dose 1.5 mg*kg^-1*day^-1,64.6 mg/100 g
same,(%) left unchanged after 30 min,[3],20%
same,(%) left unchanged after 60 min,[3],11%
same,(%) left unchanged after 30 min,[4],5%
same,(%) left unchanged after 60 min,[4],7%
same,(%) left unchanged after 30 min,[5],59%
same,(%) left unchanged after 60 min,[5],41%
"C[C@@H]1CC2=CC(=O)CC[C@@H]2[C@H]2CC[C@]3(C)[C@@H](O)CC[C@H]3[C@@H]21 [Compound B, 7α-methyl-19-nortestosterone, reference compound]",Seminal vesicles Stimulation [mean],seminal vesicles; dose 0.005 mg*kg^-1*day^-1,4.6
same,Seminal vesicles rel. Gewicht,seminal vesicles; dose 0.005 mg*kg^-1*day^-1,9.2 mg/100 g
same,Seminal vesicles Stimulation [mean],seminal vesicles; dose 0.015 mg*kg^-1*day^-1,17.0
same,Seminal vesicles rel. Gewicht,seminal vesicles; dose 0.015 mg*kg^-1*day^-1,13.6 mg/100 g and 19.2 mg/100 g
same,Seminal vesicles Stimulation [mean],seminal vesicles; dose 0.05 mg*kg^-1*day^-1,51.8
same,Seminal vesicles rel. Gewicht,seminal vesicles; dose 0.05 mg*kg^-1*day^-1,36.8 mg/100 g and 39.0 mg/100 g
same,Seminal vesicles Stimulation [mean],seminal vesicles; dose 0.15 mg*kg^-1*day^-1,87.8
same,Seminal vesicles rel. Gewicht,seminal vesicles; dose 0.15 mg*kg^-1*day^-1,65.5 mg/100 g
same,M. levator ani Stimulation [mean],M. levator ani; dose 0.005 mg*kg^-1*day^-1,71.3
same,M. levator ani rel. Weight,M. levator ani; dose 0.005 mg*kg^-1*day^-1,36.6 mg/100 g
same,M. levator ani Stimulation [mean],M. levator ani; dose 0.015 mg*kg^-1*day^-1,92.6
same,M. levator ani rel. Weight,M. levator ani; dose 0.015 mg*kg^-1*day^-1,38.1 mg/100 g and 53.7 mg/100 g
same,M. levator ani Stimulation [mean],M. levator ani; dose 0.05 mg*kg^-1*day^-1,150.7
same,M. levator ani rel. Weight,M. levator ani; dose 0.05 mg*kg^-1*day^-1,48.1 mg/100 g and 59.4 mg/100 g
same,M. levator ani Stimulation [mean],M. levator ani; dose 0.15 mg*kg^-1*day^-1,283.4
same,M. levator ani rel. Weight,M. levator ani; dose 0.15 mg*kg^-1*day^-1,59.4 mg/100 g
same,Prostate Stimulation [mean],prostate; dose 0.005 mg*kg^-1*day^-1,4.3
same,Prostate rel. Weight,prostate; dose 0.005 mg*kg^-1*day^-1,8.9 mg/100 g
same,Prostate Stimulation [mean],prostate; dose 0.015 mg*kg^-1*day^-1,24.0
same,Prostate rel. Weight,prostate; dose 0.015 mg*kg^-1*day^-1,14.6 mg/100 g and 20.0 mg/100 g
same,Prostate Stimulation [mean],prostate; dose 0.05 mg*kg^-1*day^-1,51.3
same,Prostate rel. Weight,prostate; dose 0.05 mg*kg^-1*day^-1,24.7 mg/100 g and 31.7 mg/100 g
same,Prostate Stimulation [mean],prostate; dose 0.15 mg*kg^-1*day^-1,90.2
same,Prostate rel. Weight,prostate; dose 0.15 mg*kg^-1*day^-1,40.6 mg/100 g
same,(%) left unchanged after 30 min,[3],4%
same,(%) left unchanged after 60 min,[3],4%
same,(%) left unchanged after 30 min,[4],4%
same,(%) left unchanged after 60 min,[4],6%
same,(%) left unchanged after 30 min,[5],37%
same,(%) left unchanged after 60 min,[5],19%
